Source: article PMC5012427 (Molecular cell, 2016)
Numbering of substitutions follows the chain as printed.

Assays:
Coq8^NΔ41 (Coq8p) = biological target: T1, Coq8^NΔ41 (Coq8p) (Saccharomyces cerevisiae, UniProt P27697, A197G); experiment: nucleotide binding; conditions: A-rich loop A-to-G mutant
T1 sequence (P27697 42-501 A197G): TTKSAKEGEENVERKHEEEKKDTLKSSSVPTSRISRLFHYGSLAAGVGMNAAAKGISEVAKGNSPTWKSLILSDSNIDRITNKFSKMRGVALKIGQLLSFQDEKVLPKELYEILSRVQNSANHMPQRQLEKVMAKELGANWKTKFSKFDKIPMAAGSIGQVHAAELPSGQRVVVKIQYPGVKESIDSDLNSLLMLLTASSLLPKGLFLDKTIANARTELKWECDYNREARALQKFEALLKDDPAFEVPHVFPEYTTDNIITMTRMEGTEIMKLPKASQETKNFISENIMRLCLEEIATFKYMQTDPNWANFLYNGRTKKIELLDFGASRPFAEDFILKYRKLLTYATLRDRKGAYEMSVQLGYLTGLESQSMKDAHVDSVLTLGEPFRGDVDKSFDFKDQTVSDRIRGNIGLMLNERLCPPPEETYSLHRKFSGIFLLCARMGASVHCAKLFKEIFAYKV

MBP-Coq8^NΔ41 = biological target: T2, MBP-Coq8^NΔ41 (Saccharomyces cerevisiae, UniProt P27697); experiment: co-purification, LC-MS/MS lipidomics; format: binding; conditions: co-purified from E. coli; WT compared with mutants
T2 sequence (P27697 42-501): T1 sequence (P27697 42-501 A197G) with G156A

Structure (SMILES): Nc1ncnc2c1ncn2[C@@H]1O[C@H](COP(=O)(O)OP(=O)(O)O)[C@@H](O)[C@H]1O [ADP]
- nucleotide binding (method in supplement) (Coq8^NΔ41 (Coq8p)): selectivity for ADP over ATP that can be reversed by an A-rich loop A-to-G mutation

Structure (SMILES): CC(C)=CCC/C(C)=C/CC/C(C)=C/CC/C(C)=C/CC/C(C)=C/CC/C(C)=C/CC/C(C)=C/Cc1ccccc1O [heptaprenylphenol]
- co-purification, LC-MS/MS lipidomics (MBP-Coq8^NΔ41): binding of OHB, OPP, and heptaprenylphenol (HPP) was decreased by Coq8p active site mutations
